Experiment [1] has as its target human p38α (Homo sapiens, UniProt Q16539). Description: Purified and activated recombinant human p38α assay (HTRF). Format: biochemical. Particulars: 1 nM p38α, 50 μM ATP, 100 nM GST-ATF2-Avitag, 1 hour at RT, read-out: p38a IC50 IC50. The procedure:
Purified and Activated Recombinant Human p38α Assay
Kinase Reaction Buffer: Kinase reaction buffer for p38α HTRF assays consists of 50 mM Tris-pH 7.5, 5 mM MgCl2, 0.1 mg/mL BSA, 100 μM Na3VO4 and 0.5 mM DTT.
HTRF Detection Buffer: HTRF detection buffer contains 100 mM HEPES-pH 7.5, 100 mM NaCl, 0.1% BSA, 0.05% Tween-20, and 10 mM EDTA.
Serial Dilution of Compounds: Compounds were dissolved in 100% DMSO and serially diluted (3 fold, 10 point) in a polypropylene 96-well microtiter plate (drug plate). The final starting concentration of compounds in the p38α enzymatic assays was 1 μM. Columns 6 and 12 (HI controls and LO controls respectively) in the drug plate were reserved as controls and contained only DMSO. Kinase Reaction: The p38α kinase reactions were carried out in a polypropylene 96-well black round bottom assay plate in total volume of 30 μL kinase reaction buffer. Appropriate concentration of purified and activated enzyme (recombinant human) was mixed with indicated concentration of ATP and 100 nM GST-ATF2-Avitag, in the presence or absence (HI control) of Compound. See table below for actual concentrations. In the absence of substrate, the background was measured as LO control. The reaction was allowed to incubate for 1 hour at RT. Assay Reagent Concentrations: The final reagent concentrations were 1 nM p38α and 50 μM ATP. […] After 60 minutes incubation at room temperature, the assay plate was read in a Discovery Plate Reader. The wells were excited with coherent 320 nm light and the ratio of delayed ([…] post excitation) emissions at […] (native europium fluorescence) and 665 nm (europium fluorescence transferred to allophycocyanin—an index of substrate phosphorylation) was determined (Park et al, 1999). Data Analysis: The proportion of substrate phosphorylated in the kinase reaction in the presence of compound compared with that phosphorylated in the presence of DMSO vehicle alone (HI control) was calculated using the formula: % control (POC)=(compound−average LO)/(average HI−average LO)*100. Data (consisting of POC and inhibitor concentration in μM) was fitted to a 4-parameter equation (y=A+((B−A)/(1+((x/C)^D))), where A is the minimum y (POC) value, B is the maximum y (POC), C is the x (compound concentration) at the point of inflection and D is the slope factor, using a Levenburg-Marquardt non-linear regression algorithm.
The inhibition constant (Ki) of the inhibitor was estimated from the IC50 (compound concentration at the point of inflection C) using the Cheng-Prussof equation: Ki=IC50/(1+S/Km), where S is the ATP substrate concentration, and Km is the Michaelis constant for ATP as determined experimentally. All results were expressed as the mean±the standard error of the mean. Data acquisition and non-linear regression algorithms were performed using Activity Base v5.2 and XL-fit software v4.1 respectively. All data was archived using Activity Base v5.2 software.
(Time-resolved FRET reads energy transfer from a long-lived donor to a nearby acceptor.)

Experiment [2] has as its system TNF-α induced IL-8 production in human whole blood. Description: Inhibition of TNF-α induced IL-8 in 50% human whole blood. It is filed as cell-based. Particulars: 1 nM TNF-α, secreted IL-8, 16-18 hours, read-out: WB TNF/IL8 IC50. The procedure:
Inhibition of TNF-α Induced IL-8 in 50% Human Whole Blood
Test compounds were evaluated in vitro for the ability to inhibit the production of secreted IL-8 by whole blood activated with TNF-α. Fresh human whole blood was obtained from healthy, non-medicated volunteers in sodium heparin tubes.
Compound Dilution—Assay Procedure
Test compounds are serially diluted 1:3 in DMSO and then diluted 1:250 into R10 (RPMI 1640, 10% human serum AB, 1× pen/strep/glutamine) to the 4× working concentration to be used in the assay. 100 ul heparinized whole blood is plated into wells of 96 well flat bottom plates. 50 ul of either 4× compound or DMSO control (Final DMSO concentration is 0.1%) are added to the appropriate wells. Plates are incubated for 1 hour at 37 degrees Celsius. 50 ul of 4×TNF-α (4 nM TNF-α, for a final concentration of 1 nM) or control (media alone) is added to the appropriate wells (Total volume=200 ul). Plates are incubated overnight (16-18 hours). 100 ul of supernatant is collected and stored in 96-well round bottom polypropylene plates at −80 degrees Celsius or assayed immediately for IL-8.
Cytokines are measured on antibody (Ab) sandwich ECL based 96-well detection plates. 20 ul of supernatant are added to plate and plate is sealed and shaken at RT for 1 hour. 130 ul of detection Ab cocktail is added and plates are sealed and shaken for 1 hour in the dark at RT. Plates are read on MSD Sector HTS instrument. Data are analyzed and IC50 values generated using Activity Base and Xl-fit programs.

Sequence of human p38α (Q16539 whole entry): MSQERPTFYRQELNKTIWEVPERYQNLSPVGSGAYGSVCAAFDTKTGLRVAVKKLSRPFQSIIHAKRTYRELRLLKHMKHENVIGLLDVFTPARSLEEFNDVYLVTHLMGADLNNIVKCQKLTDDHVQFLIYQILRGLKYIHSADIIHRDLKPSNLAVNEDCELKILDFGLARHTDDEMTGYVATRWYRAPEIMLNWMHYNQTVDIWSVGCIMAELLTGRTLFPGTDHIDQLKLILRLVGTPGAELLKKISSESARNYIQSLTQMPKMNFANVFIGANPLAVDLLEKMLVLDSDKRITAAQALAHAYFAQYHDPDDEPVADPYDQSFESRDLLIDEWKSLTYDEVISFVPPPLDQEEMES

On to `CC(Oc1nncc2cc(Nc3ccc(F)cc3F)ccc12)C(F)(F)F` (racemic) [Example 6, N-(2,4-Difluorophenyl)-1-(1,1,1-trifluoropropan-2-yloxy)phthalazin-6-amine], for which the IC50 in experiment [1] was 3.1 nM; in experiment [2] it was 37 nM.

`CC1CCCN1c1nncc2cc(Nc3ccc(F)cc3F)ccc12` (stereo not shown) [Example 1, N-(2,4-Difluorophenyl)-1-(2-methylpyrrolidin-1-yl)phthalazin-6-amine]: the IC50 came to 1.5 nM in experiment [1] and 4.1 nM in experiment [2].

Consider `Cc1cc(S(C)(=O)=O)ccc1-c1nncc2cc(Nc3ccc(F)cc3)ccc12` [Example 2, N-(4-Fluorophenyl)-1-(2-methyl-4-(methylsulfonyl)phenyl)phthalazin-6-amine], for which the IC50 was 0.3 nM in experiment [1] and 0.8 nM in experiment [2].

As to `Cc1ccc(F)cc1Nc1ccc2c(-c3ccc(F)cc3C)nncc2c1` [Example 3, 1-(4-Fluoro-2-methylphenyl)-N-(5-fluoro-2-methylphenyl)phthalazin-6-amine], the IC50 in experiment [1] worked out at 0.5 nM; in experiment [2], 3.5 nM.

Take `Cc1cc(F)ccc1-c1nncc2cc(Sc3cccc(F)c3)ccc12` [Example 4, 1-(4-Fluoro-2-methylphenyl)-6-(3-fluorophenylthio)phthalazine]: the IC50 worked out at 1 nM in experiment [1] and 66.9 nM in experiment [2].

Regarding `CC(c1nncc2cc(Nc3ccc(F)cc3)ccc12)C(F)(F)F` (stereo not shown) [Example 5, N-(4-Fluorophenyl)-1-(2,2,2-trifluoro-1-methylethyl)-6-phthalazinamine], the IC50 in experiment [1] came to 1 nM; in experiment [2] it was 3.9 nM.

For the compound `C[C@@H](Oc1nncc2cc(Nc3ccc(F)cc3F)ccc12)C(F)(F)F` [Example 6a, N-(2,4-difluorophenyl)-1-(((1R)-2,2,2-trifluoro-1-methylethyl)oxy)-6-phthalazinamine], the IC50 in experiment [1] amounted to 1.5 nM; in experiment [2], 24 nM.

Take `C[C@H](Oc1nncc2cc(Nc3ccc(F)cc3F)ccc12)C(F)(F)F` [Example 6b, N-(2,4-difluorophenyl)-1-(((1S)-2,2,2-trifluoro-1-methylethyl)oxy)-6-phthalazinamine]: the IC50 was 4.6 nM in experiment [1] and 89 nM in experiment [2].

For `CC(C)c1nncc2cc(Nc3ccc(F)cc3F)ccc12` [Example 7, N-(2,4-Difluorophenyl)-1-isopropylphthalazin-6-amine], the values for the IC50 in experiment [1] and in experiment [2] were 0.4 nM and 2.4 nM, respectively.

As for `Cc1ccccc1-c1nncc2cc(Nc3ccc(F)cc3F)ccc12` [Example 8, N-(2,4-difluorophenyl)-1-(2-methylphenyl)-6-phthalazinamine], the results for the IC50 in experiment [1] and in experiment [2] were 0.2 nM and 1.7 nM, respectively.

`Cc1ccccc1-c1nncc2cc(Nc3ccccc3)ccc12` [Example 9, 1-(2-methylphenyl)-N-phenyl-6-phthalazinamine]: the IC50 in experiment [1] stood at 0.2 nM; in experiment [2], 1.5 nM.

For `Cc1cc(S(C)(=O)=O)ccc1-c1nncc2cc(Nc3ccc(F)cc3F)ccc12` [Example 10, N-(2,4-difluorophenyl)-1-(2-methyl-4-(methylsulfonyl)phenyl)-6-phthalazinamine], the IC50 in experiment [1] was 0.3 nM; in experiment [2], 0.5 nM.

As to `Cc1cc(F)ccc1-c1nncc2cc(Nc3ccc(F)cc3)ccc12` [Example 11, 1-(4-fluoro-2-methylphenyl)-N-(4-fluorophenyl)-6-phthalazinamine], the IC50 in experiment [1] was found to be 0.4 nM; in experiment [2], 1.5 nM.

For `Cc1cc(S(C)(=O)=O)c(F)cc1-c1nncc2cc(Nc3ccc(F)cc3F)ccc12` [Example 12, N-(2,4-difluorophenyl)-1-(5-fluoro-2-methyl-4-(methylsulfonyl)phenyl)-6-phthalazinamine], the results for the IC50 in experiment [1] and in experiment [2] were 0.5 nM and 0.8 nM, respectively.

Regarding `Cc1cc(F)ccc1-c1nncc2cc(Nc3ccc(F)cc3C(F)(F)F)ccc12` [Example 13, 1-(4-fluoro-2-methylphenyl)-N-(4-fluoro-2-(trifluoromethyl)phenyl)-6-phthalazinamine], the IC50 in experiment [1] amounted to 0.5 nM; in experiment [2], 9.9 nM.

On to `Cc1cc(F)ccc1-c1nncc2cc(Nc3ncccc3C)ccc12` [Example 14, 1-(4-fluoro-2-methylphenyl)-N-(3-methyl-2-pyridinyl)-6-phthalazinamine], for which the figures for the IC50 in experiment [1] and in experiment [2] were 0.7 nM and 6.6 nM, respectively.

With `Cc1cccc(Nc2ccc3c(-c4ccc(F)cc4C)nncc3c2)n1` [Example 15, 1-(4-fluoro-2-methylphenyl)-N-(6-methyl-2-pyridinyl)-6-phthalazinamine], the results for the IC50 in experiment [1] and in experiment [2] were 1.5 nM and 11.4 nM, respectively.

Take `Cc1cc(F)ccc1-c1nncc2cc(Nc3ccccn3)ccc12` [Example 16, 1-(4-fluoro-2-methylphenyl)-N-2-pyridinyl-6-phthalazinamine]: the results for the IC50 in experiment [1] and in experiment [2] were 1.6 nM and 16.1 nM, respectively.

Turning to `CC1CCCN1c1nncc2cc(Nc3ccccc3)ccc12` (stereo not shown) [Example 17, 1-(2-methyl-1-pyrrolidinyl)-N-phenyl-6-phthalazinamine], the figures for the IC50 in experiment [1] and in experiment [2] were 5 nM and 6.7 nM, respectively.

As for `Cc1cc(F)ccc1-c1nncc2cc(Nc3cccc(F)c3C)ccc12` [Example 18, N-(3-fluoro-2-methylphenyl)-1-(4-fluoro-2-methylphenyl)-6-phthalazinamine], the IC50 was 0.3 nM in experiment [1] and 1.8 nM in experiment [2].

As to `Cc1cccc(Nc2ccc3c(-c4ccc(F)cc4C)nncc3c2)c1` [Example 19, 1-(4-fluoro-2-methylphenyl)-N-(3-methylphenyl)-6-phthalazinamine], the IC50 is 0.3 nM in experiment [1] and 2.2 nM in experiment [2].

Consider `Cc1cc(F)ccc1Nc1ccc2c(-c3ccc(F)cc3C)nncc2c1` [Example 20, N,1-bis(4-fluoro-2-methylphenyl)-6-phthalazinamine], for which the figures for the IC50 in experiment [1] and in experiment [2] were 0.3 nM and 1.8 nM, respectively.

`Cc1cc(F)ccc1-c1nncc2cc(Nc3cccc(F)c3)ccc12` [Example 21, 1-(4-fluoro-2-methylphenyl)-N-(3-fluorophenyl)-6-phthalazinamine]: the values for the IC50 in experiment [1] and in experiment [2] were 0.5 nM and 3.2 nM, respectively.

Regarding `Cc1cc(F)ccc1-c1nncc2cc(Nc3ccc(F)cn3)ccc12` [Example 22, 1-(4-fluoro-2-methylphenyl)-N-(5-fluoro-2-pyridinyl)-6-phthalazinamine], the IC50 in experiment [1] is 0.8 nM; in experiment [2], 10.9 nM.

Consider `Cc1cc(S(C)(=O)=O)c(F)cc1-c1nncc2cc(Nc3ccc(F)cc3)ccc12` [Example 24, 1-(5-fluoro-2-methyl-4-(methylsulfonyl)phenyl)-N-(4-fluorophenyl)-6-phthalazinamine], for which the IC50 is 0.7 nM in experiment [1] and 4.7 nM in experiment [2].

As to `Cc1cc(S(C)(=O)=O)c(Cl)cc1-c1nncc2cc(Nc3ccc(F)cc3)ccc12` [Example 25, 1-(5-chloro-2-methyl-4-(methylsulfonyl)phenyl)-N-(4-fluorophenyl)-6-phthalazinamine], the IC50 was determined as 0.7 nM in experiment [1] and 4.5 nM in experiment [2].
